Blank lines part the entries; values can stand above or below the compound they belong to.
Tests used:
[1] = target: T1, G protein-coupled receptor kinase 3 (Homo sapiens) (UniProt P35626); assay: Selectivity interaction (Kinase panel (Z-LYTE Assay)) EUB0001632a ADRBK2; conditions: at 10 µM
T1 sequence (whole entry): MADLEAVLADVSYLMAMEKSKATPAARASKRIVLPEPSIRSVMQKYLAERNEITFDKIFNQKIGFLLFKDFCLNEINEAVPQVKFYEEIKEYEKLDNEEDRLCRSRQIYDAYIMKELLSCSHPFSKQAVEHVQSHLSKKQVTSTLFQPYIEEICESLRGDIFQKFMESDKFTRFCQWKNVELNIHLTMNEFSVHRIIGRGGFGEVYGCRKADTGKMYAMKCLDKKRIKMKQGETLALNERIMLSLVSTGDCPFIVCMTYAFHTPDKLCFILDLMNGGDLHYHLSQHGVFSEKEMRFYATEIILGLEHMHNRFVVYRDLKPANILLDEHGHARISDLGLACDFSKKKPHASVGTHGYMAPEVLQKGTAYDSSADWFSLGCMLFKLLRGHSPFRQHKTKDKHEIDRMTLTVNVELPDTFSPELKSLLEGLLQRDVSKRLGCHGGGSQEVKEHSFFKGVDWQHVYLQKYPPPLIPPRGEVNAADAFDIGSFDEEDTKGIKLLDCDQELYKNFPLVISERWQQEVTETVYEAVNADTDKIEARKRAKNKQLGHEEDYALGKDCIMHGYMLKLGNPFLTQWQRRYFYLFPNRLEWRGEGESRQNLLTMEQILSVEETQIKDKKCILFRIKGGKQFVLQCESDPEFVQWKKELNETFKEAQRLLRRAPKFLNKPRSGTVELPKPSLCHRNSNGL

[2] = target: Nuclear body protein SP140-like protein (Homo sapiens) (UniProt Q9H930); assay: Selectivity interaction (Human bromodomain panel (DSF assay)) EUB0000233b SP140L
Nuclear body protein SP140-like protein (Homo sapiens), sequence (Q9H930 whole entry): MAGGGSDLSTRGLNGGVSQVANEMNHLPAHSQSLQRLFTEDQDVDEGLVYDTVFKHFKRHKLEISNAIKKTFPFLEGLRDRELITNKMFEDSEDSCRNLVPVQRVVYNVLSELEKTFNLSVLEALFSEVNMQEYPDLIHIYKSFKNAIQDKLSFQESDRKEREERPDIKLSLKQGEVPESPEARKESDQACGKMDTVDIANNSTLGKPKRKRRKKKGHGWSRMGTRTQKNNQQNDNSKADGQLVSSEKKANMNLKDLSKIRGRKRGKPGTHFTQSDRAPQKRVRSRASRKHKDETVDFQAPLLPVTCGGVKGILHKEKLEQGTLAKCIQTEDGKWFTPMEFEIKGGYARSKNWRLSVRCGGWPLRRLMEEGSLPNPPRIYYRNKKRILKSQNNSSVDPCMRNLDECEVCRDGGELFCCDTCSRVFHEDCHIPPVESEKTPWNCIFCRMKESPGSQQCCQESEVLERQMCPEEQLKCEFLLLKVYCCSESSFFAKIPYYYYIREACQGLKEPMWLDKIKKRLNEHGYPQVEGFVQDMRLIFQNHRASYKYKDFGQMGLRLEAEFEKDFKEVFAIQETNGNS

[3] = target: Tyrosine-protein kinase Srms (Homo sapiens) (UniProt Q9H3Y6); assay: Selectivity interaction (KinomeScan (DiscoverX)) EUB0000666a SRMS; conditions: at 10 µM
Tyrosine-protein kinase Srms (Homo sapiens), sequence (Q9H3Y6 whole entry, canonical isoform): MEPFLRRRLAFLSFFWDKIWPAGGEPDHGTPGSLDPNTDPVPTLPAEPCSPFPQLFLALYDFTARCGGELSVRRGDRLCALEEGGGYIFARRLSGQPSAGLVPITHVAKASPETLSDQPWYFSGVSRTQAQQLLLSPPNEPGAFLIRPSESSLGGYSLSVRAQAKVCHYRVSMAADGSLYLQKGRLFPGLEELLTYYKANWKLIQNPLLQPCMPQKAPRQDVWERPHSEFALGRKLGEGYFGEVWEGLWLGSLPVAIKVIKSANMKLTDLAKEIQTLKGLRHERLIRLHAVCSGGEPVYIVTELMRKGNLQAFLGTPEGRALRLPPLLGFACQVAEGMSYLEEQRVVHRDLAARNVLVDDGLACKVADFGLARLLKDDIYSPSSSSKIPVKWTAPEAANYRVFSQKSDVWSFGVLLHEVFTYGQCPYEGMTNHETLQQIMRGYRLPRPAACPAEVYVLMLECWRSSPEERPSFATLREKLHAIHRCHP

[4] = target: Casein kinase I isoform gamma-3 (Homo sapiens) (UniProt Q9Y6M4); assay: Selectivity interaction (KinomeScan (DiscoverX)) EUB0000666a CSNK1G3; conditions: at 10 µM
Casein kinase I isoform gamma-3 (Homo sapiens), sequence (Q9Y6M4 whole entry, looked up, canonical isoform): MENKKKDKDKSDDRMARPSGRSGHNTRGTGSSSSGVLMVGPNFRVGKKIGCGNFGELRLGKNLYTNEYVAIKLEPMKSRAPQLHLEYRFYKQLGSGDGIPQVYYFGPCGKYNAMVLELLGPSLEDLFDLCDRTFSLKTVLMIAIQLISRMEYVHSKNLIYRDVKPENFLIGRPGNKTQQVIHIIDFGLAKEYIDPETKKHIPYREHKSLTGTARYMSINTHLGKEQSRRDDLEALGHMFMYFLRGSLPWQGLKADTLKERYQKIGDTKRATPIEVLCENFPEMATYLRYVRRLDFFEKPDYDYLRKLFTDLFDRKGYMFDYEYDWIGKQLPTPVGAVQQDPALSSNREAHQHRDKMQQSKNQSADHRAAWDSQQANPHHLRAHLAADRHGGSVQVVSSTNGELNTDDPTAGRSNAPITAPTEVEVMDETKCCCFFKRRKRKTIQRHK

[5] = target: T2, Testis-specific serine/threonine-protein kinase 2 (Homo sapiens) (UniProt Q96PF2); assay: Selectivity interaction (Upstate Kinase Profiler service (Millipore)) EUB0000056c TSSK2; conditions: at 1 µM
T2 sequence (whole entry): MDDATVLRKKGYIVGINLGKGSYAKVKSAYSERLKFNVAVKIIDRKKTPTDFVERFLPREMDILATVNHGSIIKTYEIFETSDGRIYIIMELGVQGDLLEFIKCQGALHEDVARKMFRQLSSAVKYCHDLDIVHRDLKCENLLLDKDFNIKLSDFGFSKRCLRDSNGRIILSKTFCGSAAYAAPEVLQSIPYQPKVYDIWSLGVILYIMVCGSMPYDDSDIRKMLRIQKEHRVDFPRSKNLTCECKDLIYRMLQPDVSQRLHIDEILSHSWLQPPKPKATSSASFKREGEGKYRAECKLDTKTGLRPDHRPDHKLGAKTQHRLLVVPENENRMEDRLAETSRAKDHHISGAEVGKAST

[6] = target: Ribosomal protein S6 kinase beta-1 (Homo sapiens, UniProt P23443); assay: Selectivity interaction (Enyzmatic assay) EUB0000601a RPS6KB1
Ribosomal protein S6 kinase beta-1, sequence (P23443 whole entry): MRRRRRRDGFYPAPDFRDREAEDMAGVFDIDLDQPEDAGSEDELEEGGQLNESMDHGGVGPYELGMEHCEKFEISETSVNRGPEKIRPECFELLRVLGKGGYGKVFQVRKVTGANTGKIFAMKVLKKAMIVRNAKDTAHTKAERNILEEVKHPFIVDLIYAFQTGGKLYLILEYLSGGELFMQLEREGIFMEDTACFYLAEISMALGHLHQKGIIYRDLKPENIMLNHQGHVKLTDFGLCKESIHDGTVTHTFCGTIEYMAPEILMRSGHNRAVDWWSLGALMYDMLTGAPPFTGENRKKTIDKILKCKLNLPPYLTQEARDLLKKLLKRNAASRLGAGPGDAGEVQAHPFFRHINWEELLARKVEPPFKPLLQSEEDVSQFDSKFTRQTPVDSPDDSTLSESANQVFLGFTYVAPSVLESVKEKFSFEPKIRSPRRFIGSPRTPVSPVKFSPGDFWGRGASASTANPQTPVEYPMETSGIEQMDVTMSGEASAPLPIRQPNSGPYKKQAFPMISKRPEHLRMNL

[7] = target: Glycogen synthase kinase-3 alpha (Homo sapiens, UniProt P49840); assay: Selectivity interaction (Kinase counterscreening (biochemical assay)) EUB0000604a GSK3A
Glycogen synthase kinase-3 alpha, sequence (P49840 whole entry): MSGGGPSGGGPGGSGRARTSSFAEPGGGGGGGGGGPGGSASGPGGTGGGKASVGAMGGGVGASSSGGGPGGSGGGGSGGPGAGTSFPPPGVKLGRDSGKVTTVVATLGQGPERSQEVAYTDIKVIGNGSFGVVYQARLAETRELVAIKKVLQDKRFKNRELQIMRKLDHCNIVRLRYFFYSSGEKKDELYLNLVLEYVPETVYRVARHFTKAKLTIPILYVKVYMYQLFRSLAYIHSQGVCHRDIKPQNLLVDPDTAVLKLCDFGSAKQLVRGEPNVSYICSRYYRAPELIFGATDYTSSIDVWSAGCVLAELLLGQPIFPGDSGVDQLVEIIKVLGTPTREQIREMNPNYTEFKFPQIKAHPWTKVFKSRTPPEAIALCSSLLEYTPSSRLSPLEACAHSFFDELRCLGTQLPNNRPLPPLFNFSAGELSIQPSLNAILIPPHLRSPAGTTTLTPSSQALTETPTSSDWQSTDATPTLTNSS

[8] = target: Tyrosine-protein kinase JAK1 (Homo sapiens, UniProt P23458); assay: Selectivity interaction (Antiproliferative activity against Tel-kinase transformed Ba/F3 cell line) EUB0000045b JAK1; type: cell-based; conditions: BaF3
Tyrosine-protein kinase JAK1, sequence (P23458 whole entry): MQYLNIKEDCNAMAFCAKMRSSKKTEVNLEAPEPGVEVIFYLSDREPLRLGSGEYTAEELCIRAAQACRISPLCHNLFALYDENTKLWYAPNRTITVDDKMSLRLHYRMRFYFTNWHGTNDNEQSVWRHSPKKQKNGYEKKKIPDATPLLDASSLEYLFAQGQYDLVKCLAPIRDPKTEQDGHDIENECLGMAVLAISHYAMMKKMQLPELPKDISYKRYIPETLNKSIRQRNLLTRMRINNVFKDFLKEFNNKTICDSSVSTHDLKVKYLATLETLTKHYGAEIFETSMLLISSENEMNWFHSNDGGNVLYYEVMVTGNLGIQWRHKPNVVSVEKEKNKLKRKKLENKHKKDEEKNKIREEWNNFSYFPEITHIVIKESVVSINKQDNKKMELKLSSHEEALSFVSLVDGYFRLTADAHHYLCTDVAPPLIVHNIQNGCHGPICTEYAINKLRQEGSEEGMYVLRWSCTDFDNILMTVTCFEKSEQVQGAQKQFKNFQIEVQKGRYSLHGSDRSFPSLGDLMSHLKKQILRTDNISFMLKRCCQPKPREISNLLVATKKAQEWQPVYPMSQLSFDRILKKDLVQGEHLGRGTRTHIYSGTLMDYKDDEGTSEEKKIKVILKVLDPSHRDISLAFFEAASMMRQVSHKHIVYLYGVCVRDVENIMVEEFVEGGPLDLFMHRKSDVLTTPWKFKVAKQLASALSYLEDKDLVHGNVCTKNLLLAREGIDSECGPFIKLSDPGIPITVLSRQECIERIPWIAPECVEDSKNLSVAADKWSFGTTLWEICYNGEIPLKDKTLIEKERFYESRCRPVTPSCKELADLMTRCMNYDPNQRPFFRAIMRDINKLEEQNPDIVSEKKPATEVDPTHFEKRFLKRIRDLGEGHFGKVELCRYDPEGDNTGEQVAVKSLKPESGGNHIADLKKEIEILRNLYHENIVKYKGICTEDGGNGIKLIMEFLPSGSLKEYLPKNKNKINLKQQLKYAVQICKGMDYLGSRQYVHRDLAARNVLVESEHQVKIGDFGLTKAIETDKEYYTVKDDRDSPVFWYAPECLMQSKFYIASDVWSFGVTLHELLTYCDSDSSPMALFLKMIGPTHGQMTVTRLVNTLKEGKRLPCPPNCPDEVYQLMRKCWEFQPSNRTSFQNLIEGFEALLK

[9] = target: Serine/threonine-protein kinase Nek6 (Homo sapiens) (UniProt Q9HC98); assay: Selectivity interaction (KinomeScan (DiscoverX)) EUB0000045b NEK6
Serine/threonine-protein kinase Nek6 (Homo sapiens), sequence (Q9HC98 whole entry): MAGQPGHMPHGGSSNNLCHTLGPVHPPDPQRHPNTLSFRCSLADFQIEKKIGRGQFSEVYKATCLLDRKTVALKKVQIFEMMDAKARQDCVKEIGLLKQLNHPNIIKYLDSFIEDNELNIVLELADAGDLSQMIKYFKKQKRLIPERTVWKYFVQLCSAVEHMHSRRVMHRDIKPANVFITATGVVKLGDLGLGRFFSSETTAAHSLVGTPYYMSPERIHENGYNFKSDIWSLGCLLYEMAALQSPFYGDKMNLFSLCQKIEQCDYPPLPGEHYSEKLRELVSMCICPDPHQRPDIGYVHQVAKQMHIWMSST

[10] = target: T3, Ephrin type-A receptor 3 (Homo sapiens) (UniProt P29320); assay: Selectivity interaction (KinomeScan (DiscoverX)) EUB0000229b EPHA3; conditions: at 10 µM
T3 sequence (whole entry): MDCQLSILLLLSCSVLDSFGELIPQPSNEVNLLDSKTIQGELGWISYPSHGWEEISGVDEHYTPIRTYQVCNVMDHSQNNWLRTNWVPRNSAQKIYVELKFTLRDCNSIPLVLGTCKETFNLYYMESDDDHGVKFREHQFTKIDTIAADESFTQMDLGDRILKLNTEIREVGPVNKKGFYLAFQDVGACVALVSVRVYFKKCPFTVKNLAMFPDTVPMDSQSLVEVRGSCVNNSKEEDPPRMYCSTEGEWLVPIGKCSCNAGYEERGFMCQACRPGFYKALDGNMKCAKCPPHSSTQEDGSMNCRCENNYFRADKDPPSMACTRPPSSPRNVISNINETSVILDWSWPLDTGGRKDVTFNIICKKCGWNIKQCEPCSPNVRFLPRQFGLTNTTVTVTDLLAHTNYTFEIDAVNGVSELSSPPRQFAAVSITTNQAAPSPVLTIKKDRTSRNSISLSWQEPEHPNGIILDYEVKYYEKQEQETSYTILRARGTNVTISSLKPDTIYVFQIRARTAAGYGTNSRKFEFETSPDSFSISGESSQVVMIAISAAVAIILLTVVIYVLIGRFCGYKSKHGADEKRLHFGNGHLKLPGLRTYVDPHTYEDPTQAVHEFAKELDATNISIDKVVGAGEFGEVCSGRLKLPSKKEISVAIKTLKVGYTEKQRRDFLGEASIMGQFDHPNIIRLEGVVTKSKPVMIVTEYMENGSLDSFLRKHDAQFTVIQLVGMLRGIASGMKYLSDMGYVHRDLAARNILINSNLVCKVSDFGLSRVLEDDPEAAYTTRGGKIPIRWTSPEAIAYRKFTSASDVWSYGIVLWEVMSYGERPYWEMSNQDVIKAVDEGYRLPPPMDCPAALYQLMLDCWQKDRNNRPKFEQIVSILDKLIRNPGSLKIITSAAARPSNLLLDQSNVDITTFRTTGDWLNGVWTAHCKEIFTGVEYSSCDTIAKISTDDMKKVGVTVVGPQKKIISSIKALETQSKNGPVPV

[11] = target: Serine/threonine-protein kinase PAK 1 (Homo sapiens) (UniProt Q13153); assay: Selectivity interaction (KinomeScan (DiscoverX)) EUB0000092b PAK1; conditions: at 10 µM
Serine/threonine-protein kinase PAK 1 (Homo sapiens), sequence (Q13153 whole entry): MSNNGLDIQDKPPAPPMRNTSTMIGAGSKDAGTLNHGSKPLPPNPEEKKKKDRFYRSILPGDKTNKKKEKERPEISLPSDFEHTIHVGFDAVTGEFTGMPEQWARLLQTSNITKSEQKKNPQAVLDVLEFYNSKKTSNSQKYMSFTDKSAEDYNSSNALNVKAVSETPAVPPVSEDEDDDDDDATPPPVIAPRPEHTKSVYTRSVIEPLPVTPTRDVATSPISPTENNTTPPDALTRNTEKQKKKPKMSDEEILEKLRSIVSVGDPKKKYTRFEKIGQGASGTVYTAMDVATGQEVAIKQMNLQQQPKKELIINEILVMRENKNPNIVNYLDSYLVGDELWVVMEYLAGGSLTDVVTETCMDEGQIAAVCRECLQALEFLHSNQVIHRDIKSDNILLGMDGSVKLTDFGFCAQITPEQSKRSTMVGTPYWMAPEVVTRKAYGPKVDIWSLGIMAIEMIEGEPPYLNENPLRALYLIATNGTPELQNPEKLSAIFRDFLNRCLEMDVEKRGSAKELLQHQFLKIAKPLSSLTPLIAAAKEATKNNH

[12] = target: Serine/threonine-protein kinase 38-like (Homo sapiens) (UniProt Q9Y2H1); assay: Selectivity interaction (KinomeScan (DiscoverX)) EUB0001619a STK38L; conditions: at 1 µM
Serine/threonine-protein kinase 38-like (Homo sapiens), sequence (Q9Y2H1 2-464 limits assumed): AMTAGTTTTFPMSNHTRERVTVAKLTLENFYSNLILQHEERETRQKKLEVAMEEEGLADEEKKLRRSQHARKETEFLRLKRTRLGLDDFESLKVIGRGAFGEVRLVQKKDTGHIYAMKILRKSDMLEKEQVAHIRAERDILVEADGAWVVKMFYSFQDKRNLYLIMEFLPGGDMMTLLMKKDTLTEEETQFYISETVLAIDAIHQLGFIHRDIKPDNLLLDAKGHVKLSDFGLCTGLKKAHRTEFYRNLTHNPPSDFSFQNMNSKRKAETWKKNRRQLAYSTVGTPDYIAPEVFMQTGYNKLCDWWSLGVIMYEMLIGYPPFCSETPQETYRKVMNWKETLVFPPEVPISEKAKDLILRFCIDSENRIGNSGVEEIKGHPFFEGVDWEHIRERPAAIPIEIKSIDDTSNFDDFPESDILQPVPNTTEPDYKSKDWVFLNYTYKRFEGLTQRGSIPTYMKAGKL

% of control [1]: -1.17%
Structure (SMILES): Cn1cc(-n2cnc3c(NCc4nc5cc(Cl)c(Cl)cc5[nH]4)nc(N4CCOCC4)nc32)cn1

dTM [2]: < 2 K
Structure (SMILES): CN(C)CCCOc1ccc(-c2cc(NCCCn3cccn3)nc(S(C)(=O)=O)n2)cc1

Structure (SMILES): O=C(NOC[C@H](O)CO)c1ccc(F)c(F)c1Nc1ccc(I)cc1F
% of control [3]: 95% | % of control [4]: 67%

% of inhibition [5]: 4%
Structure (SMILES): Cc1ccc(-c2ccc3c(ccc4sc5c(c43)NC[C@@H](C)NC5=O)n2)cn1

IC50 [6]: > 10000 nM
Structure (SMILES): CCc1cc(Nc2nccc(-c3c(-c4ccc(OC)c(C(=O)Nc5c(F)cccc5F)c4)nc4ccccn34)n2)c(OC)cc1N1CCC(N2CCN(S(C)(=O)=O)CC2)CC1

Structure (SMILES): Cc1cnc(Nc2ccc(F)cc2Cl)nc1-c1c[nH]c(C(=O)N[C@H](CO)c2cccc(Cl)c2)c1
Ki [7]: 400 nM

Structure (SMILES): C=CC(=O)Nc1cc(-n2c(=O)ccc3cnc4ccc(-c5ccc(NS(C)(=O)=O)cc5)cc4c32)ccc1C
GIC50 [8]: 4.92 µM | % of control ([9]; at 1 µM): 100% | % of control ([9]; at 10 µM): 74%

Structure (SMILES): COc1cc(N(C)c2ccnc3ccc(C(F)(F)F)cc23)cc(OC)c1OC
% binding [10]: 93%

Structure (SMILES): CCC(=O)N1CCN(c2ccc(-n3c(=O)ccc4cnc5ccc(-c6cnc7ccccc7c6)cc5c43)cc2C(F)(F)F)CC1
% of control [11]: 73%

Structure (SMILES): N#Cc1cccc(-c2c[nH]c3ncnc(N4CCOCC4)c23)c1
% of control [12]: 100%

— ChEMBL document CHEMBL5465560, “Selectivity Literature for EUbOPEN Chemogenomic Library” (2024)
